Experimental data from patent publication US20210130401A1, “PEPTIDOMIMETIC INHIBITORS OF THE WDR5-MLL INTERACTION” (THE REGENTS OF THE UNIVERSITY OF MICHIGAN, priority 2017, published 2021).
Read-outs that look alike come from different tables or passages of the source. Starred links: 1 amine or outer side, 2 acyl side, 3 side chain; linkers in the order of their positions; H or OH if unused. Positions of bridges follow the written chain, without caps; N, C: chain ends. Non-standard residues stand in square brackets, D forms with d. Residues, ends and D or L forms follow the SMILES beside them. *: point of attachment. dαMeLys(Me) = CN(CCCC[C@@](C)(N[*:1])C(=O)[*:2])[*:3]; dαMeDab = C[C@](CCN[*:3])(N[*:1])C(=O)[*:2]; Arg(Me2s) = CN=C(NC)NCCC[C@H](N)C(=O)O; dPhg(4-F) = N[C@@H](C(=O)O)c1ccc(F)cc1; Arg(Me) = CNC(=N)NCCC[C@H](N)C(=O)O; d(αMeOrn) = C[C@@](N)(CCCN)C(=O)O; d(αMeK) = C[C@@](N)(CCCCN)C(=O)O; dPhg = N[C@@H](C(=O)O)c1ccccc1; Phg = N[C@H](C(=O)O)c1ccccc1; αMeK = C[C@](N)(CCCCN)C(=O)O; dDab = NCC[C@@H](N)C(=O)O; Isobutyryl = CC(C)C(=O)*; dAbu = CC[C@@H](N)C(=O)O; Abu = CC[C@H](N)C(=O)O

Legend:
[1] = target: T1, WDR5 (Homo sapiens, UniProt P61964); assay: fluorescence polarization (FP) based competitive binding assay to WDR5 protein
T1 construct: N-terminal His-tagged WDR5 protein (residues 24-334), named WDR5Δ23; made in house; host or cells: E. coli Rosetta 2 (DE3)
Protocol: The plates were incubated at room temperature on a shaker for 3h, and then the mP values were measured using the Tecan Infinite M-1000 plate reader (Tecan U.S., Research Triangle Park, N.C.).

[2] = target: T2, MLL complex (Homo sapiens, UniProt P61964); assay: AlphaLISA MLL HMT functional assay (cell-free); assay type: biochemical; conditions: read-out: Inhibition of MLL HMT Activity IC50 ± SD
T2 construct: full length human WDR5 with N-terminal 6×His tag; purchased Activmotif (Carlsbad, Calif.)
Source text: To avoid multiple wash and transfer steps, an amplified luminescent proximity homogeneous assay (AlphaLISA) was developed and optimized to evaluate the MLL HMT inhibitory activities of the Compounds of the Disclosure.
In this assay, recombinant nucleosomes are initially treated with the MLL complex for methylation in the presence of S-Adenosyl methionine (SAM) as cofactor before stopping the reaction with high salt buffer. Then, anti-H3K4Mel/2 antibody, which is covalently linked to acceptor beads, and biotinylated anti-H3 (C-terminus) antibody were added.
Anti-Histone H3 Lysine 4 (H3K4mel-2) AlphaLISA acceptor beads, AlphaScreen Streptavidin donor beads and biotinylated anti-H3 (C-terminus) antibody were obtained from PerkinElmer Life Sciences (Waltham, Mass.). 2.5 μl of compound serial dilutions in assay buffer with 4% DMSO and 5 μl of pentameric MLL complex solution were added into a white low volume 384 well microtiter plate which was incubated for 30 minutes with gentle shaking at room temperature, followed by adding 2.5 μl of SAM/Nucleosome mixture. The methylation reaction was performed in 50 mM Tris, pH 8.5 with 1 mM DTT and 0.01% Tween-20 added right before the assay. Final concentrations of MLL complex, SAM, and nucleosomes were 5 nM, 200 nM, and 3 nM, respectively. Final DMSO in the reaction mixture was 1%. The reaction was allowed to perform for 120 minutes in dark with gentle shaking at room temperature. […] 5 μL of high salt stopping solution (50 mM Tris, pH 7.4 with 1 M NaCl, 0.1% Tween-20, and 0.3% poly-L-Lysine) was added to stop the methylation reactions for 15 minutes. 5 μl of 5× acceptor beads/biotinylated anti-H3 antibody mixture in detection buffer (50 mM Tris, pH 7.4 with 0.3 M NaCl, 0.1% Tween-20, and 0.001% poly-L-Lysine) was added, followed by 1 hour incubation at room temperature to allow full interaction between antibodies and methylated nucleosomes. Add 5 μL of 5× streptavidin donor beads in detection and incubate 30 minutes.

[3] = tested on: HL-60 leukemia cells carrying no MLL fusion; assay: cell viability assay (WST-8), HL-60; assay type: cell-based; conditions: Homo sapiens, HL-60, 96 h, read-out: Cell Growth Inhibition IC50 (μM) HL-60
Protocol: Cell viability was determined using the WST-8 cell proliferation assay kit (Dojindo Molecular Technologies) according to manufacturer's instructions. Three independent experiments in triplicates were performed.

[4] = tested on: MOLM-13 leukemia cells carrying MLL-AF9 fusion; assay: cell viability assay (WST-8), MOLM-13; assay type: cell-based; conditions: Homo sapiens, MOLM-13, 96 h, read-out: Cell Growth Inhibition IC50 (μM) MOLM-13
Protocol: (§1) To assess cell viability, MOLM-13 leukemia cells carrying MLL-AF9 fusion, MV4;11 leukemia cells carrying MLL-AF4 fusion or HL-60 leukemia cells carrying no MLL fusion were seeded 1×10^4 cell/well in 96-well plates and treated with an inhibitor for 4 days at different concentrations, in culture media containing 0.2% DMSO as the final concentration. Cell viability was determined using the WST-8 cell proliferation assay kit (Dojindo Molecular Technologies) according to manufacturer's instructions. Three independent experiments in triplicates were performed.

[5] = tested on: MV4;11 leukemia cells carrying MLL-AF4 fusion; assay: cell viability assay (WST-8), MV4;11; assay type: cell-based; conditions: Homo sapiens, MV4-11, 96 h, read-out: Cell Growth Inhibition IC50 (μM) MV-4-11
Protocol: as §1

[6] = amide bond; 14-membered ring; HATU/DIEA; DMF; with chain assembly
[7] = calculated from IC50 by published equation, read-out: Binding Affinity to WDR5 Ki ± SD
[8] = read-out: Binding Affinity to WDR5 IC50 ± SD

## CC[C@@H]1NC(=O)[C@H](CCCNC(=N)N)NC(=O)[C@H](NC(=O)C(C)C)CCNC(=O)[C@@H](c2ccccc2)NC1=O [Cpd. No. 1, N-((3R,6S,9S,12R)-6-ethyl-9-(3-guanidinopropyl)-2,5,8,11-tetraoxo-3-phenyl-1,4,7,10-tetraazacyclotetradecan-12-yl)isobutyramide] (Isobutyryl-[dDab]R[Abu][dPhg]; lactam 1-C)
[1]; [7]
  Ki: 0.0008 ± 0.0001 µM
[1]; [8]
  IC50: 0.0062 ± 0.0005 µM
[2]
  IC50: 0.0018 ± 0.0004 µM
[3]; 4 days treatment
  IC50: > 100 µM
[4]; 4 days treatment
  IC50: 42.8 µM
[5]; 4 days treatment
  IC50: 43.4 µM

## CC[C@@H]1NC(=O)[C@H](CCCNC(=N)N)NC(=O)[C@](C)(NC(=O)C(C)C)CCNC(=O)[C@@H](c2ccccc2)NC1=O [Cpd. No. 4, N-((3R,6S,9S,12R)-6-ethyl-9-(3-guanidinopropyl)-12-methyl-2,5,8,11-tetraoxo-3-phenyl-1,4,7,10-tetraazacyclotetradecan-12-yl)isobutyramide] (Isobutyryl-[dαMeDab]R[Abu][dPhg]; lactam 1-C)
[1]; [7]
  Ki: < 0.001 µM
[1]; [8]
  IC50: 0.00108 ± 0.00012 µM
[3]; 4 days treatment
  IC50: 17.4 µM
[4]; 4 days treatment
  IC50: 0.28 ± 0.02 µM
[5]; 4 days treatment
  IC50: 0.46 ± 0.02 µM

## CC[C@@H]1NC(=O)[C@H](CCCNC(=N)NC)NC(=O)[C@](C)(NC(=O)C(C)C)CCNC(=O)[C@H](c2ccccc2)NC1=O [Cpd. No. 62, N-((3S,6S,9S,12R)-6-ethyl-12-methyl-9-(3-(3-methylguanidino)propyl)-2,5,8,11-tetraoxo-3-phenyl-1,4,7,10-tetraazacyclotetradecan-12-yl)isobutyramide] (Isobutyryl-[dαMeDab][Arg(Me)][Abu][Phg]; lactam 1-C)
[1]; [7]
  Ki: < 0.001 µM
[1]; [8]
  IC50: 0.002 ± 0.0001 µM
[4]; 4 days treatment
  IC50: 14.3 ± 0.9 µM
[5]; 4 days treatment
  IC50: 35 ± 4.4 µM

## CC[C@@H]1NC(=O)[C@H](CCCNC(=N)N)NC(=O)[C@](C)(NC(=O)C(C)C)CCCCNC(=O)[C@@H](c2ccccc2)NC1=O [Cpd. No. 64, N-((3R,6S,9S,12R)-6-ethyl-9-(3-guanidinopropyl)-12-methyl-2,5,8,11-tetraoxo-3-phenyl-1,4,7,10-tetraazacyclohexadecan-12-yl)isobutyramide] (Isobutyryl-[d(αMeK)]R[Abu][dPhg]; lactam 1-C)
[3]
  IC50: > 100 µM

## CC[C@@H]1NC(=O)[C@H](CCCNC(=N)N)NC(=O)[C@](C)(NC(=O)C(C)C)CCCCN(C)C(=O)[C@@H](c2ccc(F)cc2)NC1=O [Cpd. No. 66, N-((3R,6S,9S,12R)-6-ethyl-3-(4-fluorophenyl)-9-(3-guanidinopropyl)-1,12-dimethyl-2,5,8,11-tetraoxo-1,4,7,10-tetraazacyclohexadecan-12-yl)isobutyramide] (Isobutyryl-[dαMeLys(Me)]R[Abu][dPhg(4-F)]; lactam 1-C)
[1]
  IC50: 0.0016 ± 0.001 µM
  Ki: < 0.001 µM
[3]
  IC50: 60 ± 19.7 µM
[4]
  IC50: 16.2 ± 6.1 µM
[5]
  IC50: 5.2 ± 1.1 µM

## CC[C@@H]1NC(=O)[C@H](CCCNC(=N)NC)NC(=O)[C@](C)(NC(=O)C(C)C)CCCCNC(=O)[C@@H](c2ccccc2)NC1=O [Cpd. No. 68, N-((3R,6S,9S,12R)-6-ethyl-12-methyl-9-(3-(3-methylguanidino)propyl)-2,5,8,11-tetraoxo-3-phenyl-1,4,7,10-tetraazacyclohexadecan-12-yl)isobutyramide] (Isobutyryl-[d(αMeK)][Arg(Me)][Abu][dPhg]; lactam 1-C)
[1]
  IC50: 0.0011 ± 0.0003 µM
  Ki: < 0.001 µM
[3]
  IC50: > 100 µM
[4]
  IC50: 3.6 ± 0.8 µM
[5]
  IC50: 4.3 ± 1.5 µM

## CC[C@@H]1NC(=O)[C@H](CCCN/C(=N/C)NC)NC(=O)[C@](C)(NC(=O)C(C)C)CCCCNC(=O)[C@@H](c2ccccc2)NC1=O [Cpd. No. 69, N-((3R,6S,9S,12R)-9-(3-((E)-2,3-dimethylguanidino)propyl)-6-ethyl-12-methyl-2,5,8,11-tetraoxo-3-phenyl-1,4,7,10-tetraazacyclohexadecan-12-yl)isobutyramide] (Isobutyryl-[d(αMeK)][Arg(Me2s)][Abu][dPhg]; lactam 1-C)
[1]
  IC50: 0.0024 ± 0.0007 µM
  Ki: < 0.001 µM
[3]
  IC50: 84.8 ± 13.2 µM
[4]
  IC50: 31.5 ± 9.8 µM
[5]
  IC50: 15.2 ± 2.9 µM

## CC[C@H]1NC(=O)[C@@H](CCCNC(=N)N)NC(=O)[C@@](C)(NC(=O)C(C)C)CCCCNC(=O)[C@H](c2ccccc2)NC1=O [Cpd. No. 70, N-((3S,6R,9R,12S)-6-ethyl-9-(3-guanidinopropyl)-12-methyl-2,5,8,11-tetraoxo-3-phenyl-1,4,7,10-tetraazacyclohexadecan-12-yl)isobutyramide] (Isobutyryl-[αMeK][dR][dAbu][Phg]; lactam 1-C)
[3]
  IC50: > 100 µM
[4]
  IC50: > 100 µM
[5]
  IC50: > 100 µM

## CC[C@@H]1NC(=O)[C@H](CCCNC(=N)N)NC(=O)[C@](C)(NC(=O)C(C)C)CCCNC(=O)[C@@H](c2ccccc2)NC1=O [Cpd. No. 74, N-((3R,6S,9S,12R)-6-ethyl-9-(3-guanidinopropyl)-12-methyl-2,5,8,11-tetraoxo-3-phenyl-1,4,7,10-tetraazacyclopentadecan-12-yl)isobutyramide] (Isobutyryl-[d(αMeOrn)]R[Abu][dPhg]; lactam 1-C)
[1]; [7]
  Ki: < 0.001 µM
[1]; [8]
  IC50: 0.00097 ± 0.00013 µM
[3]; 4 days treatment
  IC50: 46.8 µM
[4]; 4 days treatment
  IC50: 1.28 ± 0.01 µM
[5]; 4 days treatment
  IC50: 1.29 µM

## CC[C@@H]1NC(=O)[C@H](CCCNC(=N)N)NC(=O)[C@](C)(NC(=O)C(C)C)CCCCCNC(=O)[C@@H](c2ccccc2)NC1=O [Cpd. No. 75, N-((3R,6S,9S,12R)-6-ethyl-9-(3-guanidinopropyl)-12-methyl-2,5,8,11-tetraoxo-3-phenyl-1,4,7,10-tetraazacycloheptadecan-12-yl)isobutyramide]
[1]; [7]
  Ki: < 0.001 µM
[1]; [8]
  IC50: 0.0026 ± 0.0002 µM
[3]; 4 days treatment
  IC50: > 100 µM
[4]; 4 days treatment
  IC50: 37.6 ± 12.1 µM
[5]; 4 days treatment
  IC50: 15.1 ± 11.8 µM

## CC[C@@H]1NC(=O)[C@H](CCCNC(=N)N)NC(=O)[C@](C)(NC(=O)C(C)C)CCCCCCNC(=O)[C@@H](c2ccccc2)NC1=O [Cpd. No. 76, N-((3R,6S,9S,12R)-6-ethyl-9-(3-guanidinopropyl)-12-methyl-2,5,8,11-tetraoxo-3-phenyl-1,4,7,10-tetraazacyclooctadecan-12-yl)isobutyramide]
[1]
  IC50: 0.001 ± 0.0002 µM
  Ki: < 0.001 µM
[2]
  IC50: 0.216 ± 0.088 µM
[3]
  IC50: 29.7 ± 11.5 µM
[4]
  IC50: 5.6 ± 0.7 µM
[5]
  IC50: 3.2 ± 0.4 µM

## CC[C@@H]1NC(=O)[C@H](CCCNC(=N)N)NC(=O)[C@](C)(NC(=O)C(C)C)CCCCCCCCNC(=O)[C@@H](c2ccccc2)NC1=O [Cpd. No. 77, N-((3R,6S,9S,12R)-6-ethyl-9-(3-guanidinopropyl)-12-methyl-2,5,8,11-tetraoxo-3-phenyl-1,4,7,10-tetraazacycloicosan-12-yl)isobutyramide]
[1]
  IC50: 0.0013 ± 0.0002 µM
  Ki: < 0.001 µM
[2]
  IC50: 0.744 ± 0.079 µM
[3]
  IC50: > 100 µM
[4]
  IC50: 21.6 ± 4.8 µM
[5]
  IC50: 7.5 ± 3 µM

## N-((3R,6S,9S,12R)-6-ethyl-12-methyl-2,5,8,11-tetraoxo-3-phenyl-9-(3-ureidopropyl)-1,4,7,10-tetraazacyclotetradecan-12-yl)isobutyramide
[6]
  ring closure, yield after HPLC: 6%

## N-((3R,6S,9S,12R)-6-ethyl-12-methyl-9-(3-(3-methylguanidino)propyl)-2,5,8,11-tetraoxo-3-phenyl-1,4,7,10-tetraazacyclotetradecan-12-yl)isobutyramide
[6]
  ring closure, yield after HPLC: 15.4%

## N-((3R,6S,12R)-6-ethyl-12-methyl-2,5,8,11-tetraoxo-3-phenyl-9-(3-phenylpropyl)-1,4,7,10-tetraazacyclotetradecan-12-yl)isobutyramide
[6]
  ring closure, yield after HPLC: 7%

## N-((3R,6S,12R)-6-ethyl-12-methyl-2,5,8,11-tetraoxo-9-phenethyl-3-phenyl-1,4,7,10-tetraazacyclotetradecan-12-yl)isobutyramide
[6]
  ring closure, yield after HPLC: 7%

## N-((3R,6S,12R)-9-(3-amino-3-oxopropyl)-6-ethyl-12-methyl-2,5,8,11-tetraoxo-3-phenyl-1,4,7,10-tetraazacyclotetradecan-12-yl)isobutyramide
[6]
  ring closure, yield after HPLC: 17%

## N-((3S,6S,9S,12R)-6-ethyl-12-methyl-9-(3-(3-methylguanidino)propyl)-2,5,8,11-tetraoxo-3-phenyl-1,4,7,10-tetraazacyclotetradecan-12-yl)isobutyramide
[6]
  ring closure, yield after HPLC: 7%
